{"source": "patent US20230132378A9", "about": "“COMPOSITIONS AND METHODS FOR TREATING HEMORRHAGIC STROKE” (UNM RAINFOREST INNOVATIONS, priority 2017, published 2023)", "key": {"[1]": {"tested_on": "primary neurons", "assay": "Cytotoxicity (Cytotox 96 LDH release) in primary neurons", "assay_type": "cell-based", "conditions": "for neuron toxicity under hypoxia / cell death in normoxia: three-hour exposure; for neuron toxicity under hypoxia: 2.5-7.5 μM; for cell death in normoxia: any concentration tested"}, "[2]": {"tested_on": "primary astrocytes", "assay": "Cytotoxicity (Cytotox 96 LDH release) in primary astrocytes", "assay_type": "cell-based", "conditions": "three-hour exposure, 5 and 7.5 μM", "procedure": "Astrocytic death rate was measured using Cytotox 96 nonradioactive cytotoxicity assay kit (Promega, Madison, Wis.), which quantitatively measures lactate dehydrogenase (LDH) release from dead cells. Astroytes (5×10^3 cells/well) were seeded into 96-well microtiter plates. Following three hours normoxia or hypoxia treatment, 50 μl of the reconstituted substrate mixture was added to each well of the plate. Thirty minutes later, 50 μl of the stop solution was added to each well, and the absorbance was measured at 490 nm in a microplate reader (Bio-Rad 3350, Bio-Rad Laboratories, Inc. Hercules, Calif.). Triton-X 100-treated cells were used as 100% cell death control. The cell death rate was calculated by using the formula: Cell death rate=(Experimental absorbance value−culture medium absorbance value)/(Triton-X 100-treated absorbance value−culture medium absorbance value)."}, "[3]": {"tested_on": "ZnPP generation in the hemorrhagic brain", "assay": "ZnPP autofluorescence imaging on hemorrhagic brain slices", "assay_type": "in vivo, rat", "procedure": "(§1) The Laboratory Animal Care and Use Committee of the University of New Mexico approved all experimental protocols. The animals were used in compliance with the NIH Guide for Care and Use of Laboratory Animals. Male Sprague Dawley rats (Charles River Laboratories, Inc., Wilmington, Mass.) weighing 290 g to 320 g were anesthetized with isoflurane (5% for induction, 2% for maintenance) in N2O/O2 (70:30%) during surgical procedures, and the body temperature was maintained at 37.5° C.±0.5° C. using a heating pad. A small burr hole was made at 3.5 mm right of the bregma. 0.2 U collagenase (Sigma-Aldrich, St. Louis, Mo.) in 1 μl sterile saline was injected to 6.0 mm deep through the burr hole. The needle was removed at five minutes after collagenase injection to prevent backflow. A total of 49 rats were used in this study.\nN,N,N′,N′-tetrakis-(2-Pyridylmethyl)ethylenediamine (TPEN, Sigma-Aldrich, St. Louis, Mo.) was dissolved in dimethyl sulfoxide (DMSO) to 25 mg/ml and then further diluted in physiological saline to a final concentration of 2.5 mg/ml. 10 mg/kg TPEN was intraperitoneal injected at one hour before collagenase injection. Saline with 10% DMSO was used as control.\nN-methyl protoporphyrin IX (Santa Cruz Biotechnology, Inc., Dallas, Tex.), a ferrochelatase inhibitor was dissolved in DMSO to 200 mg/ml and then further diluted in physiological saline to a final concentration of 20 mg/ml. […]"}, "[4]": {"tested_on": "ICH-induced brain damage", "assay": "Brain damage by T2-weighted MRI after collagenase-induced ICH", "assay_type": "in vivo, rat", "procedure": "as §1\nAll multimodal magnetic resonance imaging (MRI) of the rat was performed by using a 4.7-Tesla MRI scanner (Bruker Biospin, Billerica, Mass.), which was equipped with a 40-cm bore, a 660 mT/m (rise time within 120 μs) gradient and shim systems (Bruker Biospin, Billerica, Mass.). The rats were anaesthetized with 2% isoflurane (Clipper Distributing Company, LLC, St. Joseph, Mo.) during MRI. At the same time respiration and heart rate were monitored. The body temperature of the rats was maintained at 37.0° C.±0.5° C. […]"}, "[5]": {"tested_on": "cell death in the hemorrhagic brain", "assay": "Brain cell death by TUNEL assay after collagenase-induced ICH", "assay_type": "in vivo, rat", "procedure": "as §1, with “study. […]” for “study.”\nA standard terminal deoxynucleotidyl transferase—mediated dUTP nick-end labeling (TUNEL) procedure for frozen tissue sections was performed (Click-iT TUNEL Alexa Fluor 488 Imaging Assay kit (Thermo Fisher Scientific, Waltham, Mass.). Histological images were captured on a fluorescence microscope (Olympus IX71, Olympus Corp., Center Valley, Pa.) with a TRITC dichroic mirror."}, "[6]": {"tested_on": "ZnPP in hemorrhagic hemisphere tissue", "assay": "Fluorescence spectrophotometry of ZnPP in brain tissue extract", "assay_type": "in vivo, rat", "conditions": "TPEN pretreatment", "procedure": "as §1, with “study. […]” for “study.”\nThe animals were euthanized at 24 hours after collagenase injection. […] After centrifugation at 13,000×g, the fluorescence intensity (excitation=416 nm, emission=588 nm) was determined using a SpectraMax M2 Multi-Mode Microplate Readers (Molecular Devices LLC, Sunnyvale, Calif.) as previously described (Nakamura et al., 2011. J Control Release 155(3):367-375. After being treated with heparin as an anti-coagulant, 50 μl blood was diluted in ethanol. Followed by centrifugation, the fluorescence intensity of ZnPP in the ethanol extract supernatant was measured."}, "[7]": {"tested_on": "whole rat blood", "assay": "ZnPP generation in whole blood with zinc under hypoxia", "conditions": "100 μM zinc, hypoxia three hours, P=0.00096", "procedure": "The animals were euthanized at 24 hours after collagenase injection. The brains were harvested and cut into 2-mm thick coronal slice. The tissue with visible blood at the hemorrhagic hemisphere of each slice was collected. And the tissue at the corresponding location at the contralateral hemisphere was also collected. The tissue was homogenized on ice in ethanol. After centrifugation at 13,000×g, the fluorescence intensity (excitation=416 nm, emission=588 nm) was determined using a SpectraMax M2 Multi-Mode Microplate Readers (Molecular Devices LLC, Sunnyvale, Calif.) as previously described (Nakamura et al., 2011. J Control Release 155(3):367-375. After being treated with heparin as an anti-coagulant, 50 μl blood was diluted in ethanol. Followed by centrifugation, the fluorescence intensity of ZnPP in the ethanol extract supernatant was measured.\nBlood was drawn from normal Sprague Dawley rats. Blood was subjected to hypoxia by incubating in a humidified airtight chamber (Billups-Rothenberg, Inc., San Diego, Calif.) equipped with an air lock and flushed with 95% N2/5% CO2 for 15 minutes. Then the chamber was scaled and kept at 37° C. for three hours."}, "[8]": {"tested_on": "labile zinc accumulation in brain tissue after hemorrhagic stroke", "assay": "Labile zinc staining (Fluozin-3) on brain slices after collagenase-induced ICH", "assay_type": "in vivo, rat", "conditions": "rats pretreated with 10 mg/kg i.p. one hour before collagenase injection; versus saline control", "procedure": "as §1, with “study. […]” for “study.”\nTo detect labile zinc in brain tissue, cryosections 16 μm thick were stained with the zinc-specific membrane-permeable fluorescent dyes Fluozin-3 (Invitrogen, Thermo Fisher Scientific, Carlsbad, Calif.). […] After washing in saline, images were acquired by a fluorescence microscope (Olympus IX71, Olympus Corp., Center Valley, Pa.) with a GFP dichroic mirror."}, "[9]": {"biological_target": "T1, ferrochelatase (Homo sapiens, UniProt P22830)", "T1 sequence (P22830 55-423)": "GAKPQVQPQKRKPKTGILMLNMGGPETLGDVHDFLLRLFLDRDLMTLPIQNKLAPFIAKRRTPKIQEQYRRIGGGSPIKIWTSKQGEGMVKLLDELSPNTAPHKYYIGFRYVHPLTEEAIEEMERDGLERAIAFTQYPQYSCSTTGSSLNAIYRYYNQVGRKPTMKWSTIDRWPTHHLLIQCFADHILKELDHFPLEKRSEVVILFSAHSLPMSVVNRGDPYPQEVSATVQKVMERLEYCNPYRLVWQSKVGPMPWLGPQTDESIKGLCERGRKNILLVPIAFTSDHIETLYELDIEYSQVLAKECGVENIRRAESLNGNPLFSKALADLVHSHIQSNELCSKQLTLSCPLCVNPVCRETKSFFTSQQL", "conditions": "cited from earlier work"}, "[10]": {"tested_on": "brain of permanent MCAO rat model", "assay": "ZnPP injection into brain parenchyma of MCAO or normal rats, T2-weighted MRI", "assay_type": "in vivo", "conditions": "MCAO rats, ZnPP 10 μg/kg into brain parenchyma of ischemic side", "procedure": "All multimodal magnetic resonance imaging (MRI) of the rat was performed by using a 4.7-Tesla MRI scanner (Bruker Biospin, Billerica, Mass.), which was equipped with a 40-cm bore, a 660 mT/m (rise time within 120 μs) gradient and shim systems (Bruker Biospin, Billerica, Mass.). The rats were anaesthetized with 2% isoflurane (Clipper Distributing Company, LLC, St. Joseph, Mo.) during MRI. At the same time respiration and heart rate were monitored. The body temperature of the rats was maintained at 37.0° C.±0.5° C. The success of the intracerebral hemorrhage model and brain damage was estimated by T2-weighted images. T2-weighted images were acquired with a fast spin-echo sequence (rapid acquisition with relaxation enhancement (RARE)) (Repetition Time (TR)/Echo Time (TE)=5,000 ms/56 ms, Field of View (FOV)=4 cm×4 cm, slice thickness=1 mm, inter-slice distance=1.1 mm, number of slices=12, matrix=256×256, number of average=3).\nMiddle cerebral artery occlusion (MCAO) surgery was used to induce focal cerebral ischemia through intraluminal filament methods as described previously (Zhao et al., 2014, Stroke 45:1139-1147). The animals underwent right MCAO for 24 hours. ZnPP (10 μg/kg) in […] or 5 μl saline was injected to 6.0 mm deep at 3.5 mm right of the bregma through a burr hole on normal or MCAO rat, 10 minutes after MCAO onset."}, "[11]": {"biological_target": "T2, heme oxygenase-1 (HO-1) (Homo sapiens, UniProt P09601)", "T2 sequence (P09601 1-288)": "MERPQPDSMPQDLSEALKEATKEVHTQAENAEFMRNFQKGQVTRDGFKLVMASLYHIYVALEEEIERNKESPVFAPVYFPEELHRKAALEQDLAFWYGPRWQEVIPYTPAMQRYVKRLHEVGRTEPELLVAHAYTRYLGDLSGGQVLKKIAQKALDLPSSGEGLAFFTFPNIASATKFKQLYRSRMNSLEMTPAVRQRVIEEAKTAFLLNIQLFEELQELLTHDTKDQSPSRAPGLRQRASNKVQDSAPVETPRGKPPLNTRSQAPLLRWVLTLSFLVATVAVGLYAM", "conditions": "levels as low as; cited from earlier work"}}, "data": [{"compound": "hemin", "values": [{"measurement": "neuron toxicity under hypoxia", "setting": "[1]; hypoxia", "result": "significant dose-dependent increases"}, {"measurement": "cell death in normoxia", "setting": "[1]", "result": "Neither ZnPP nor hemin induced significant cell death"}, {"measurement": "astrocyte toxicity in hypoxia", "setting": "[2]", "result": "did not"}]}, {"compound": "c1ccc(CN(CCN(Cc2ccccn2)Cc2ccccn2)Cc2ccccn2)nc1", "note": "[TPEN, N,N,N′,N′-tetrakis-(2-Pyridylmethyl)ethylenediamine]", "values": [{"measurement": "ZnPP fluorescence on brain slices", "setting": "[3]; TPEN pretreatment, 24 hours after collagenase injection, P=0.0034", "result": "significantly decreased"}, {"measurement": "hyperintense lesion on T2-weighted MRI (brain damage)", "setting": "[4]; TPEN pretreatment, 24 hours after collagenase-induced ICH", "result": "significantly reduced"}, {"measurement": "TUNEL signal (cell death) at edge of hemorrhagic area", "setting": "[5]; TPEN 10 mg/kg i.p. one hour before collagenase injection", "result": "markedly decreased"}, {"measurement": "ZnPP formed at the hemorrhagic hemisphere (fluorescence intensity at 588 nm)", "setting": "[6]", "result": "significantly reduced"}, {"measurement": "zinc-induced ZnPP generation in hypoxic blood", "setting": "[7]", "result": "decreased"}, {"measurement": "zinc fluorescence signal (Fluozin-3) around hemorrhagic area", "setting": "[8]", "result": "significantly reduced"}]}, {"compound": "N-methyl protoporphyrin IX [N-methyl PP]", "values": [{"measurement": "reduction of ZnPP fluorescence in brain tissue versus no treatment", "setting": "[3]; N-methyl PP 100 mg/kg i.p. one hour before ICH induction, P=0.0037", "result": "about two thirds"}, {"measurement": "brain damage in ICH by T2-weighted MRI", "setting": "[4]; N-methyl PP pretreatment one hour before collagenase-induced ICH, P=0.043", "result": "significantly reduced"}, {"measurement": "number of TUNEL positive cells relative to saline treated control group", "setting": "[5]; N-methyl PP 100 mg/kg i.p. pretreatment, P=0.000039", "result": 14, "unit": "%"}, {"measurement": "inhibition of ferrochelatase", "setting": "[9]", "result": "potently inhibited"}]}, {"compound": "C=CC1=C(C)c2cc3[n-]c(cc4nc(cc5[n-]c(cc1n2)c(C)c5C=C)C(C)=C4CCC(=O)O)c(CCC(=O)O)c3C.[Zn+2]", "note": "[ZnPP, zinc protoporphyrin]", "values": [{"measurement": "neuron toxicity under hypoxia", "setting": "[1]; hypoxia", "result": "significant dose-dependent increases"}, {"measurement": "toxicity in hypoxia compared with hemin (neurons)", "setting": "[1]; hypoxia, 2.5 μM P=0.0092, 5 μM P=0.0046, 7.5 μM P=0.0059", "result": "greater than that of hemin"}, {"measurement": "cell death in normoxia", "setting": "[1]", "result": "Neither ZnPP nor hemin induced significant cell death"}, {"measurement": "brain damage area on T2-weighted MRI after ZnPP injection", "setting": "[10]", "result": "significantly increased"}, {"measurement": "astrocyte toxicity in hypoxia", "setting": "[2]", "result": "dose dependent increase in toxicity"}, {"measurement": "level significantly decreasing HO-1 activity", "setting": "[11]", "result": 0.15}]}]}
